Experimental data: PubChem BioAssay AID1963832 (Molecular Pharmacology Branch, DTP, NCI, 2024)

Test system: 885724-159-R-J1-PDC complex spheroid viability
Assay: Anticancer human tumor 885724-159-R-J1-PDC patient-derived pancreatic adenocarcinoma cell line growth inhibition [POLQ]
Details: for IC50: curve of first compound; for viability, T/C: stronger effect = lower value
In short: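 Patient-derived tumour cells were co-cultured with HUVEC and mesenchymal stem cells as multicellular spheroids at 37 °C. They were treated with POLQ inhibitors (novobiocin, ART-558, RP6685) alone or combined with other agents. Top concentrations were at or near clinical Cmax (otherwise 10 microM; SN-38 at 1 microM), decreasing in half-log steps.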

[1] = second compound 0.0316 µM, first compound 0.0316 µM
[2] = second compound 0.0316 µM, first compound 0.1 µM
[3] = second compound 0.0316 µM, first compound 0.316 µM
[4] = second compound 0.0316 µM, first compound 1 µM
[5] = second compound 0.0316 µM, first compound 3.16 µM
[6] = second compound 0.0316 µM, first compound 10 µM
[7] = second compound 0.1 µM, first compound 0.0316 µM
[8] = second compound 0.1 µM, first compound 0.1 µM
[9] = second compound 0.1 µM, first compound 0.316 µM
[10] = second compound 0.1 µM, first compound 1 µM
[11] = second compound 0.1 µM, first compound 3.16 µM
[12] = second compound 0.1 µM, first compound 10 µM
[13] = second compound 0.316 µM, first compound 0.0316 µM
[14] = second compound 0.316 µM, first compound 0.1 µM
[15] = second compound 0.316 µM, first compound 0.316 µM
[16] = second compound 0.316 µM, first compound 1 µM
[17] = second compound 0.316 µM, first compound 3.16 µM
[18] = second compound 0.316 µM, first compound 10 µM
[19] = second compound 1 µM, first compound 0.0316 µM
[20] = second compound 1 µM, first compound 0.1 µM
[21] = second compound 1 µM, first compound 0.316 µM
[22] = second compound 1 µM, first compound 1 µM
[23] = second compound 1 µM, first compound 3.16 µM
[24] = second compound 1 µM, first compound 10 µM
[25] = second compound 3.16 µM, first compound 0.0316 µM
[26] = second compound 3.16 µM, first compound 0.1 µM
[27] = second compound 3.16 µM, first compound 0.316 µM
[28] = second compound 3.16 µM, first compound 1 µM
[29] = second compound 3.16 µM, first compound 3.16 µM
[30] = second compound 3.16 µM, first compound 10 µM
[31] = second compound 10 µM, first compound 0.0316 µM
[32] = second compound 10 µM, first compound 0.1 µM
[33] = second compound 10 µM, first compound 0.316 µM
[34] = second compound 10 µM, first compound 1 µM
[35] = second compound 10 µM, first compound 3.16 µM
[36] = second compound 10 µM, first compound 10 µM
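Note: spheroids exposed to compounds for 7 days.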

C#Cc1c(F)ccc2cc(O)cc(-c3ncc4c(N5CC6CCC(C5)N6)nc(OCC56CCCN5CC(F)C6)nc4c3F)c12 (stereo unspecified) + Cc1cccc(N(C)C(=O)C2C(O)CCN2c2nc(C)cc(C(F)(F)F)c2C#N)c1
IC50 (second compound 0.0316 µM): 2450 nM
IC50 (second compound 0.1 µM): 2330 nM
IC50 (second compound 0.316 µM): 2140 nM
IC50 (second compound 1 µM): 2170 nM
IC50 (second compound 3.16 µM): 1930 nM
IC50 (second compound 10 µM): 1470 nM
viability, T/C [1]: 98.6%
viability, T/C [2]: 92.6%
viability, T/C [3]: 78.5%
viability, T/C [4]: 72%
viability, T/C [5]: 42.4%
viability, T/C [6]: 19.9%
viability, T/C [7]: 101%
viability, T/C [8]: 93.1%
viability, T/C [9]: 83.9%
viability, T/C [10]: 68.8%
viability, T/C [11]: 42.7%
viability, T/C [12]: 18.4%
viability, T/C [13]: 95.5%
viability, T/C [14]: 87.5%
viability, T/C [15]: 95.4%
viability, T/C [16]: 70%
viability, T/C [17]: 39.7%
viability, T/C [18]: 20.6%
viability, T/C [19]: 93.3%
viability, T/C [20]: 101%
viability, T/C [21]: 79.7%
viability, T/C [22]: 64.5%
viability, T/C [23]: 44.2%
viability, T/C [24]: 21.2%
viability, T/C [25]: 92.8%
viability, T/C [26]: 94.2%
viability, T/C [27]: 80.4%
viability, T/C [28]: 62.8%
viability, T/C [29]: 40.7%
viability, T/C [30]: 19%
viability, T/C [31]: 93.8%
viability, T/C [32]: 81%
viability, T/C [33]: 80.3%
viability, T/C [34]: 55.3%
viability, T/C [35]: 36.2%
viability, T/C [36]: 19.9%

CC1COCCN1c1cc(C2(O)CC3CCC(C2)O3)c2cnn(-c3ccn[nH]3)c2n1 (stereo unspecified) + Cc1cccc(N(C)C(=O)C2C(O)CCN2c2nc(C)cc(C(F)(F)F)c2C#N)c1
IC50 (second compound 0.0316 µM): 142 nM
IC50 (second compound 0.1 µM): 243 nM
IC50 (second compound 0.316 µM): 151 nM
IC50 (second compound 1 µM): 188 nM
IC50 (second compound 3.16 µM): 302 nM
IC50 (second compound 10 µM): 225 nM
viability, T/C [1]: 74.4%
viability, T/C [2]: 51.4%
viability, T/C [3]: 41.6%
viability, T/C [4]: 39.6%
viability, T/C [5]: 35.4%
viability, T/C [6]: 28.5%
viability, T/C [7]: 72%
viability, T/C [8]: 58.1%
viability, T/C [9]: 47.6%
viability, T/C [10]: 39.3%
viability, T/C [11]: 35.4%
viability, T/C [12]: 30.8%
viability, T/C [13]: 70.4%
viability, T/C [14]: 46.9%
viability, T/C [15]: 47.2%
viability, T/C [16]: 41%
viability, T/C [17]: 35.3%
viability, T/C [18]: 28.8%
viability, T/C [19]: 77.3%
viability, T/C [20]: 56.7%
viability, T/C [21]: 41.4%
viability, T/C [22]: 40%
viability, T/C [23]: 33.2%
viability, T/C [24]: 27.1%
viability, T/C [25]: 68.8%
viability, T/C [26]: 55.8%
viability, T/C [27]: 49.4%
viability, T/C [28]: 43.2%
viability, T/C [29]: 36.5%
viability, T/C [30]: 29.2%
viability, T/C [31]: 70.6%
viability, T/C [32]: 54.2%
viability, T/C [33]: 48.8%
viability, T/C [34]: 38.1%
viability, T/C [35]: 36%
viability, T/C [36]: 29%

CCc1cc2c(N3CCc4c(cc(Cn5ccnc5)cc4-c4cn(C)nc4C(F)(F)F)C3=O)cc(C)nc2c(OC)n1 + Cc1cccc(N(C)C(=O)C2C(O)CCN2c2nc(C)cc(C(F)(F)F)c2C#N)c1
IC50 (second compound 0.0316 µM): > 10000 nM
IC50 (second compound 0.1 µM): > 10000 nM
IC50 (second compound 0.316 µM): > 10000 nM
IC50 (second compound 1 µM): > 10000 nM
IC50 (second compound 3.16 µM): > 10000 nM
IC50 (second compound 10 µM): > 10000 nM
viability, T/C [1]: 86.5%
viability, T/C [2]: 82%
viability, T/C [3]: 84.8%
viability, T/C [4]: 75.2%
viability, T/C [5]: 83.1%
viability, T/C [6]: 70.1%
viability, T/C [7]: 85.9%
viability, T/C [8]: 86.2%
viability, T/C [9]: 84.6%
viability, T/C [10]: 81.7%
viability, T/C [11]: 78.5%
viability, T/C [12]: 68.1%
viability, T/C [13]: 89.1%
viability, T/C [14]: 83.5%
viability, T/C [15]: 84.3%
viability, T/C [16]: 83.9%
viability, T/C [17]: 77.4%
viability, T/C [18]: 68.7%
viability, T/C [19]: 93.5%
viability, T/C [20]: 92.1%
viability, T/C [21]: 86%
viability, T/C [22]: 79.2%
viability, T/C [23]: 76.1%
viability, T/C [24]: 68%
viability, T/C [25]: 93.2%
viability, T/C [26]: 84.9%
viability, T/C [27]: 88.2%
viability, T/C [28]: 84.5%
viability, T/C [29]: 72.9%
viability, T/C [30]: 75.4%
viability, T/C [31]: 83.9%
viability, T/C [32]: 91%
viability, T/C [33]: 87.5%
viability, T/C [34]: 81.6%
viability, T/C [35]: 75.8%
viability, T/C [36]: 71%
